Assay results from the supplement of paper PMC11061612.

Tests used:
Experiment in all cases: Bliss excess, mean over the matrix (fraction); higher = more synergy
[1] = tested on: MFE-280 (Endometrial Carcinoma)
In short: (§1)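 After 24 hours at 37°C and 5% CO2 in 1536-well plates, cells in DMEM/F12 or RPMI plus 10% FBS received two-drug dose matrices for 72 hours. Viability came from CellTiter-Glo 2.0 luminescence and was scaled as inhibition, anchored at 0 by vehicle wells and at 1 by blank wells. Combination Emax is taken as the second-highest inhibition in the matrix, and Bliss excess as the observed combination effect less EA + EB − EA·EB, with EA and EB the single-agent effects.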

[2] = tested on: PC-3_[JPC-3] (Lung Adenocarcinoma)
In short: as §1

[3] = tested on: RKN (Other Solid Carcinomas)
In short: as §1

[4] = tested on: CAL-62 (Thyroid Gland Carcinoma)
In short: as §1

[5] = tested on: VAL (B-Cell Non-Hodgkin's Lymphoma)
In short: as §1

IST-MES1 (Mesothelioma) = tested on: IST-MES1 (Mesothelioma)
In short: as §1

NB12 (Neuroblastoma) = tested on: NB12 (Neuroblastoma)
In short: as §1

[6] = tested on: L-1236 (Hodgkin's Lymphoma)
In short: as §1

[7] = tested on: HSC-39 (Gastric Carcinoma)
In short: as §1

[8] = tested on: SHP-77 (Small Cell Lung Carcinoma)
In short: as §1

[9] = tested on: COLO-680N (Esophageal Squamous Cell Carcinoma)
In short: as §1

[10] = tested on: MKN45 (Gastric Carcinoma)
In short: as §1

[11] = tested on: RCM-1 (Colorectal Carcinoma)
In short: as §1

[12] = tested on: TE-8 (Esophageal Squamous Cell Carcinoma)
In short: as §1

[13] = tested on: NCI-H2342 (Lung Adenocarcinoma)
In short: as §1

[14] = tested on: PSN1 (Pancreatic Carcinoma)
In short: as §1

[15] = tested on: REH (B-Lymphoblastic Leukemia)
In short: as §1

SF539 (Glioblastoma) = tested on: SF539 (Glioblastoma)
In short: as §1

[16] = tested on: PANC-03-27 (Pancreatic Carcinoma)
In short: as §1

[17] = tested on: SK-PN-DW (Other Solid Carcinomas)
In short: as §1

SMILES | Bliss excess [1] | Bliss excess [2] | Bliss excess [3] | Bliss excess [4] | Bliss excess [5] | Bliss excess (IST-MES1 (Mesothelioma)) | Bliss excess (NB12 (Neuroblastoma)) | Bliss excess [6] | Bliss excess [7] | Bliss excess [8] | Bliss excess [9] | Bliss excess [10] | Bliss excess [11] | Bliss excess [12] | Bliss excess [13] | Bliss excess [14] | Bliss excess [15] | Bliss excess (SF539 (Glioblastoma)) | Bliss excess [16] | Bliss excess [17]
C=CCn1c(=O)c2cnc(Nc3ccc(N4CCN(C)CC4)cc3)nc2n1-c1cccc(C(C)(C)O)n1 [AZD1775] + CCc1c2c(nc3ccc(O)cc13)-c1cc3c(c(=O)n1C2)COC(=O)[C@]3(O)CC [SN-38] (first compound max 1 µM, partner max 0.3 µM) | -0.0149 | -0.0575 | 0.0378 | -0.0489 | -0.0619 | 0.0008 | -0.0514 | -0.0372 | -0.0065 | -0.0315 | -0.0066 | -0.0893 | -0.0402 | 0.0659 | 0.0025 | -0.0499 | -0.0887 | -0.0037 | -0.0585 | -0.0903
C=CCn1c(=O)c2cnc(Nc3ccc(N4CCN(C)CC4)cc3)nc2n1-c1cccc(C(C)(C)O)n1 [AZD1775] + Nc1ccn([C@@H]2O[C@H](CO)[C@@H](O)C2(F)F)c(=O)n1 [Gemcitabine] (first compound max 1 µM, partner max 0.3 µM) | -0.0175 | -0.035 | 0.0082 | -0.0162 | – | 0.0603 | 0.0471 | -0.0076 | 0.0379 | 0.0032 | 0.0195 | -0.116 | 0.0233 | -0.0247 | 0.0724 | 0.0451 | -0.0139 | 0.0282 | -0.0383 | -0.0347
CN(CCO)CC[C@H](CSc1ccccc1)Nc1ccc(S(=O)(=O)NC(=O)c2ccc(N3CCC([C@@H](O)c4ccccc4-c4ccc(Cl)cc4)CC3)cc2)cc1S(=O)(=O)C(F)(F)F [AZD4320] + CC(=O)O[C@H]1C(=O)[C@@]2(C)[C@H]([C@H](OC(=O)c3ccccc3)[C@]3(O)C[C@H](OC(=O)[C@H](O)[C@@H](NC(=O)c4ccccc4)c4ccccc4)C(C)=C1C3(C)C)[C@]1(OC(C)=O)CO[C@@H]1C[C@@H]2O [Paclitaxel] (first compound max 1 µM, 7x7, partner max 3 µM) | 0.171 | 0.0232 | 0.0901 | 0.0036 | 0.0018 | 0.0787 | 0.0333 | 0.0186 | 0.0069 | -0.0369 | 0.092 | -0.121 | 0.0793 | 0.0954 | 0.0455 | 0.0166 | 0.0132 | 0.0404 | 0.0599 | 0.0738
CN(CCO)CC[C@H](CSc1ccccc1)Nc1ccc(S(=O)(=O)NC(=O)c2ccc(N3CCC([C@@H](O)c4ccccc4-c4ccc(Cl)cc4)CC3)cc2)cc1S(=O)(=O)C(F)(F)F [AZD4320] + CS(=O)(=O)CCNCc1ccc(-c2ccc3ncnc(Nc4ccc(OCc5cccc(F)c5)c(Cl)c4)c3c2)o1 [Lapatinib] (first compound max 1 µM, 7x7, partner max 10 µM) | 0.0411 | -0.0108 | -0.0121 | 0.0444 | 0.0503 | 0.0367 | 0.0902 | -0.0252 | 0.0057 | 0.159 | -0.0042 | -0.0888 | 0.0202 | 0.0281 | -0.0137 | -0.0405 | 0.0721 | -0.0026 | 0.023 | -0.0829
CN(CCO)CC[C@H](CSc1ccccc1)Nc1ccc(S(=O)(=O)NC(=O)c2ccc(N3CCC([C@@H](O)c4ccccc4-c4ccc(Cl)cc4)CC3)cc2)cc1S(=O)(=O)C(F)(F)F [AZD4320] + Nc1ccn([C@@H]2O[C@H](CO)[C@@H](O)C2(F)F)c(=O)n1 [Gemcitabine] (first compound max 1 µM, 7x7, partner max 0.3 µM) | -0.0216 | 0.016 | -0.0164 | 0.0487 | -0.0044 | 0.0448 | 0.0268 | -0.0377 | -0.0867 | 0.0333 | -0.08 | -0.0393 | -0.0271 | 0.0054 | 0.0364 | -0.0027 | 0.0126 | -0.0356 | -0.0203 | -0.0422
N#Cc1cnc(Nc2cc(NC[C@H]3CNCCO3)c(C(F)(F)F)cn2)cn1 [SRA737] + O=c1[nH]cc(F)c(=O)[nH]1 [5-Fluorouracil] (first compound max 10 µM, 7x7, partner max 20 µM) | -0.0423 | -0.0443 | -0.0501 | -0.0187 | – | -0.0169 | -0.0626 | -0.0358 | -0.0252 | 0.0009 | – | -0.0689 | -0.0009 | -0.0279 | -0.0171 | 0.0184 | 0.0356 | 0.0471 | 0.0112 | 0.0243
